Results reported in PubChem BioAssay (NCI).
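Compound exposure: 48 hours, 5 concentrations, 96-well plates. GI50 is the concentration that inhibits growth by half. TGI: concentration producing complete growth inhibition.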

Assays:
Experiment in all cases: NCI-60 cell line screen, 48 h
MCF7 breast = test system: MCF7 breast
MDA-MB-231 breast = test system: MDA-MB-231 breast
NCI/ADR-RES ovarian = test system: NCI/ADR-RES ovarian
T-47D breast = test system: T-47D breast
DLD-1 colon = test system: DLD-1 colon
DMS 114 small cell lung = test system: DMS 114 small cell lung
LXFL 529 NSCLC = test system: LXFL 529 NSCLC
SNB-78 CNS = test system: SNB-78 CNS
HOP-18 NSCLC = test system: HOP-18 NSCLC
DMS 273 small cell lung = test system: DMS 273 small cell lung

Structure (SMILES)	TGI (MCF7 breast) [µM]	TGI (MDA-MB-231 breast) [µM]	TGI (NCI/ADR-RES ovarian) [µM]	TGI (T-47D breast) [µM]	GI50 (MCF7 breast) [nM]	GI50 (MDA-MB-231 breast) [nM]	GI50 (NCI/ADR-RES ovarian) [nM]	GI50 (T-47D breast) [nM]	TGI (DLD-1 colon) [µM]	TGI (DMS 114 small cell lung) [µM]	TGI (LXFL 529 NSCLC) [µM]	TGI (SNB-78 CNS) [µM]	TGI (HOP-18 NSCLC) [µM]	TGI (DMS 273 small cell lung) [µM]
NCc1nnn(Cc2ccccc2)c1N	> 100	> 100	> 100	> 100	–	–	–	–	–	–	–	–	–	–
CCCc1nc2c(C)cc(-c3nc4ccccc4n3C)cc2n1Cc1ccc(-c2ccccc2C(=O)O)cc1	> 100	> 100	> 100	> 100	31900	30300	41900	48500	–	–	–	–	–	–
O=C(/C=C\c1ccc(Cl)cc1Cl)c1cccs1	41.1	40.5	> 100	55.7	–	–	–	–	–	–	–	–	–	–
COc1ccc(/C(C)=N/OC(=O)c2c(-c3ccccc3Cl)noc2C)cc1CN1CCOCC1	46.3	66.5	> 100	71	–	–	–	–	–	–	–	–	–	–
C1=Cc2nc1c(-c1ccncc1)c1ccc([n-]1)c(-c1ccncc1)c1nc(c(-c3ccncc3)c3ccc([n-]3)c2-c2ccncc2)C=C1.[Zn+2]	–	–	–	–	–	–	–	–	> 100	> 100	> 100	> 100	–	–
NS(=O)(=O)c1ccc(CCN=C=S)cc1	3.13	4.4	11.3	3.36	808	2030	3200	638	–	–	–	–	–	–
COc1ccc(-c2nc(-c3nc4ccc(OC)cc4[nH]3)cc3c2[nH]c2ccccc23)cc1	> 100	> 100	> 100	> 100	2550	8510	2100	2270	–	–	–	–	–	–
CCOC(=O)c1c(C(F)(F)F)n([O-])c2ccc(OC)cc2[n+]1=O	65	51.6	40.7	8.69	4380	5380	3720	2600	–	–	–	–	–	–
O=C(COc1ccccc1)NS(=O)(=O)c1ccccc1	–	–	–	–	–	–	–	–	> 100	> 100	> 100	> 100	> 100	–
COc1cc(C(=O)c2cc3c(cc2C)OCO3)cc(OC)c1OC	> 100	> 100	> 100	> 100	36.6	147	226	923	–	–	–	–	–	–
CSc1nc2sc3cc(Cl)ccc3n2c(=N)c1C#N	> 100	> 100	> 100	> 100	3310	> 85700	> 42200	23700	–	–	–	–	–	–
Cc1cc(Cl)ccc1N=C1NC(=O)C(CC(=O)Nc2ccc(Cl)cc2Cl)S1 (stereo not drawn)	–	–	–	–	–	–	–	–	> 100	> 100	> 100	> 100	–	> 100
COc1ccc(/C=C/c2n[nH]c3ccc(N4CCOC4=O)cc23)cc1	40.3	9.8	40.2	8.56	1930	2980	2990	3010	–	–	–	–	–	–
NCCC(O)(P(=O)(O)O)P(=O)(O)O	> 100	> 100	> 100	> 100	37000	> 100000	> 100000	> 100000	–	–	–	–	–	–
COC(=O)[C@]1(C)CCC[C@@]2(C)C1CCC1=CC3(C(C)C)CCC12OO3 (stereo partly drawn)	–	–	–	–	–	–	–	–	> 100	–	> 100	> 100	–	–
O=C(Nc1c(O)[nH]c(=S)[nH]c1=O)c1ccc2ccccc2n1	–	–	–	–	–	–	–	–	> 100	> 100	> 100	> 100	> 100	–
O=C1CCC2(CC1)SCCCS2	–	–	–	–	–	–	–	–	> 100	> 100	> 100	–	–	> 100
O=[N+]([O-])c1nccn1COCCF	–	–	–	–	–	–	–	–	> 100	> 100	> 100	> 100	–	–
COc1cc2nc(Nc3cccc(F)c3)nc(Nc3cc(C)[nH]n3)c2cc1OC	3.83	3.42	3.64	4.05	1730	1740	1600	1360	–	–	–	–	–	–
C=C(C)[C@@H]1CC[C@]2(C)[C@H](CC[C@@H]3[C@H]4[C@H]5OC[C@@]4(CCC5(C)C)CC[C@]32C)[C@@]1(C)CCCN	3.04	3.54	3.89	4.21	1570	1840	1950	1880	–	–	–	–	–	–
CCn1cnc2c(Nc3cccc(Cl)c3)nc(N[C@@H]3CCCC[C@@H]3N)nc21	3.23	5.37	6.71	5.16	824	1830	2040	1980	–	–	–	–	–	–
CCOC(=O)c1sc(Nc2ccc(Cl)cc2)nc1C	6.14	2.61	4.08	–	1640	1080	1780	–	–	–	–	–	–	–
COc1ccc(NC(=O)c2sc3nc(C)c(C(O)c4ccccc4)cc3c2N)cc1 (stereo not drawn)	54.2	> 100	9.03	98.3	502	2960	2550	3360	–	–	–	–	–	–
Nc1c(C(=O)Nc2ccccc2Cl)sc2nc3c(cc12)CCCCCC3	16.7	14.1	25.4	17.2	896	2240	2820	3880	–	–	–	–	–	–
CCOC(=O)/C(=C/c1ccc(C#N)cc1)N(CC)CC	–	–	–	–	–	–	–	–	> 100	> 100	> 100	> 100	> 100	–
CC(C)(C)C(=O)C1CC(=O)c2ccccc2C1=O (stereo not drawn)	–	–	–	–	–	–	–	–	> 100	> 100	–	90.7	> 100	–
NCCNC(=S)S	> 100	> 100	> 100	> 100	–	–	–	–	–	–	–	–	–	–
O=C1OC(O)C(Oc2ccc(Cl)cc2)=C1Cl (stereo not drawn)	–	–	–	–	–	–	–	–	> 100	> 100	> 100	> 100	–	> 100
COC1=CC(c2ccc[nH]2)=N/C1=C\c1[nH]c(C)c(C(=O)CCCCC(=O)Nc2ccccc2)c1C	2.75	1.95	3.69	6.14	1370	396	1890	1990	–	–	–	–	–	–
